“Also recorded” adds a separate entry of the source. Blank lines part the entries; values can stand above or below the molecule they belong to.
Assays:
[1] = Cyclic voltammetry, reduction potential (FIG. 12); type: physicochemical; details: 50 mM PBS pH 7.4, modified glassy carbon electrode, scan rate 100 mV/s
Description: FIG. 12 is a cyclic voltometry (“CV”) plot of 50 mM PBS (pH=7.4) bare glassy carbon (GC) working electrode and with modified perylene tetracarboxylic anhydride (PTCA) and HCC. (Scan rate: 100 mV/s).
The triethyleneglycol-PDIs (TEG-PDIs) and TEG-NDIs have been analyzed electrochemically and show similar reduction potentials to the HCCs and PEG-HCCs. Electrochemical investigations of HCCs have placed its reduction at −0.7 V vs. Ag/AgCl, as shown by its broad peak in Plot A below.
Accordingly, the triethyleneglycol-PDIs (TEG-PDIs) and TEG-NDIs have been analyzed electrochemically and shown to have similar reduction potentials to the HCCs and PEG-HCCs. Electrochemical investigations of HCCs have placed its reduction at —0.7 V vs. Ag/AgCl (Plot A). 3,4,9,10-Perylenediimide (PDI) derivatives also have redox potentials˜−0.6 V. 1,4,5,8-Naphthalenediimide (NDI) derivatives show discrete reduction steps in the same region (Plot B).

rat T cells = test: In vitro proliferation of ConA-stimulated rat T cells, micromolar concentration (FIG. 10); type: cell-based; details: rat T cells stimulated with 1 μg/mL ConA
Description: In vitro analysis of EG3-NDI LNA20, EG8-PDI LNA30, and EG8-NDI, labeled LNA38 (which is Compound A in FIG. 4 where n=8) on T cell proliferation based on micromolar concentration was performed. 1 μg/mL ConA (mitogen) was used to stimulate rat T cells. […] Error bars represent variability between replicate wells. Unstimulated cells (left-hand bar) are shown as a negative control. Statistical analysis was performed between stimulated control cells without treatment (“Stimulated” bar) vs. various doses of the different compounds using a one-way ANOVA and Bonferonni post-hoc tests. *P<0.05, ***P<0.001, ****P<0.0001.

[2] = Superoxide scavenging assay using nitroblue tetrazolium (NBT) and KO2 (FIG. 11); type: biochemical; details: NBT added 30 s, 60 s, 120 s, 300 s after KO2; diformazan at 560 nm
Description: The antioxidant and buffer/solvent was added to a cuvette, followed by the KO2 solution. After a set time (30 s, 60 s, 120 s, 300 s), NBT was added and the resulting mixture analyzed for the NBT diformazan (λmax=560 nm) by UV-Vis spectroscopy (FIG. 11).
In FIG. 11, PEG-HCCs and p-benzoquinone (pBQ) were also run for comparison.

T cell proliferation = test: In vitro T cell proliferation (FIG. 9); type: cell-based
Source text: This is similar to the activity observed with PEG-HCCs.

reduction potential [1]: −0.7 V vs. Ag/AgCl
Structure (SMILES): O=C1OC(=O)c2ccc3c4ccc5c6c(ccc(c7ccc1c2c73)c64)C(=O)OC5=O [perylene tetracarboxylic anhydride]

Structure (SMILES): COCCOCCOCCN1C(=O)c2ccc3c4c(ccc(c24)C1=O)C(=O)N(CCOCCOCCOC)C3=O [LNA20, bis-methoxytriethylene glycol naphthalene diimide]
effect on T cell proliferation (rat T cells): exhibit an inhibitory effect
relative potency in inhibiting T cell proliferation (rat T cells): most potent
superoxide consumption / reaction with superoxide (reduction of NBT) [2]: reacts with superoxide; also recorded: showed activity
concentrations showing inhibitory effects on T cell proliferation (T cell proliferation): above 10 μg/mL
effect on T cell proliferation (T cell proliferation): exhibit an inhibitory effect

Structure (SMILES): O=C1C=CC(=O)C=C1 [pBQ, p-benzoquinone, reference compound]
superoxide consumption / reaction with superoxide (reduction of NBT) [2]: near complete consumption of superoxide; also recorded: nearly completely consumed

— patent US20160175292A1, “Antioxidants Having Aromatic Structures Reacting with Superoxide” (priority 2014, published 2016)
